{"source": "patent EP1439177B1", "about": "“Antiviral activity and resolution of 2-hydroxymethyl-5-(5-fluorocytosin-1-yl)-1,3-oxathiolane” (Emory University, priority 1991, dated 1992)", "key": {"HIV": {"system": "HIV", "assay": "microbe, parasite or virus in culture", "assay_type": "cell-based", "conditions": "Human immunodeficiency virus 1"}, "FIV": {"system": "FIV", "assay": "microbe, parasite or virus in culture", "conditions": "Feline immunodeficiency virus, CRFK", "experimental": "(§1) Cell lines were obtained from either human donors, AIDS Research and Reference Reagent Program, NIH, Rockville, Maryland, ATCC, or the Red Cross. The CEM thymidine kinase deficient cells were prepared by sequential passage of CEM cells in the presence of 5-bromo-2'-deoxyuridine."}, "SIV": {"system": "SIV", "assay": "microbe, parasite or virus in culture", "conditions": "Simian immunodeficiency virus", "experimental": "as §1"}, "HIV-1": {"system": "HIV-1", "assay": "microbe, parasite or virus in culture", "experimental": "as §1"}, "HIV-2": {"system": "HIV-2", "assay": "microbe, parasite or virus in culture", "conditions": "Human immunodeficiency virus 2, PBMC", "experimental": "as §1"}, "in vitro [1]": {"assay": "in vitro", "conditions": "human, cem cells"}, "in vivo [2]": {"assay": "in vivo", "conditions": "rat, plasma, iv"}, "[3]": {"assay": "Growth inhibition of mitogen-stimulated uninfected human PBM cells, trypan blue exclusion", "assay_type": "cell-based", "conditions": "human, pbm cells"}, "HIV-1 (strain LAV)": {"system": "HIV-1 (strain LAV)", "assay": "microbe, parasite or virus in culture", "assay_type": "cell-based", "conditions": "Human immunodeficiency virus 1, PBMC", "from_the_text": "It is often desirable to screen a number of racemic mixtures of nucleosides as a preliminary step to determine which warrant further resolution into enantiomerically enriched components and further evaluation of antiviral activity. The ability of nucleosides to inhibit HIV can be measured by various experimental techniques. The technique used herein, and described in detail below, measures the inhibition of viral replication in phytohemagglutinin (PHA) stimulated human peripheral blood mononuclear (PBM) cells infected with HIV-1 (strain LAV). The amount of virus produced is determined by measuring the virus-coded reverse transcriptase enzyme. The amount of enzyme produced is proportional to the amount of virus produced.\n• A. Three-day-old phytohemagglutinin-stimulated PBM cells (10^6 cells/ml) from hepatitis B and HIV-1 seronegative healthy donors were infected with HIV-1 (strain LAV) at a concentration of about 100 times the 50% tissue culture infectious dose (TICD 50) per ml and cultured in the presence and absence of various concentrations of antiviral compounds. • B. Approximately one hour after infection, the medium, with the compound to be tested (2 times the final concentration in medium) or without compound, was added to the flasks (5 ml; final volume 10 ml). AZT was used as a positive control. • C. The cells were exposed to the virus (about 2 x 10^5 dpm/ml, as determined by reverse transcriptase assay) and then placed in a CO2 incubator. HIV-1 (strain LAV) was obtained from the Center for Disease Control, Atlanta, Georgia. The methods used for culturing the PBM cells, harvesting the virus and determining the reverse transcriptase activity were those described by McDougal et al. (J. Immun. Meth. 76, 171-183, 1985) and Spira et al. (J. Clin. Meth. 25, 97-99, 1987), except that fungizone was not included in the medium (see Schinazi, et al., Antimicrob. Agents Chemother. 32, 1784-1787 (1988); Id., 34:1061-1067 (1990)). • D. On day 6, the cells and supernatant were transferred to a 15 ml tube and centrifuged at about 900 g for 10 minutes. Five ml of supernatant were removed and the virus was concentrated by centrifugation at 40,000 rpm for 30 minutes (Beckman 70.1 Ti rotor). The solubilized virus pellet was processed for determination of the levels of reverse transcriptase. Results are expressed in dpm/ml of sampled supernatant. Virus from smaller volumes of supernatant (1 ml) can also be concentrated by centrifugation prior to solubilization and determination of reverse transcriptase levels."}, "in vitro [4]": {"assay": "in vitro", "conditions": "african green monkey, vero cells"}, "in vivo [5]": {"assay": "in vivo", "conditions": "rhesus monkey, 33.3 mg/kg; for clearance: CLT, I.V. 33.3 mg/kg"}, "[6]": {"assay": "Chronic oral treatment of rodents, toxicity", "assay_type": "in vivo", "conditions": "oral doses of 85 mg/kg per day for at least two months"}, "other cell lines": {"system": "other cell lines", "assay": "Toxicity to other cell lines", "assay_type": "cell-based", "conditions": "concentrations up to 200 µM"}, "[7]": {"system": "peripheral human bone marrow cells", "assay": "Toxicity to peripheral human bone marrow cells", "assay_type": "cell-based", "conditions": "concentrations up to 50 µM"}, "human PBM cells [8]": {"system": "human PBM cells", "assay": "Uptake of radiolabeled FTC into human PBM cells", "assay_type": "in vitro ADME", "conditions": "10 µM radiolabeled FTC, 2 to 24 hours; Figure 7", "experimental": "All studies were conducted in duplicate."}, "human PBM cells [9]": {"system": "human PBM cells", "assay": "Egress of radiolabeled FTC from human PBM cells", "assay_type": "in vitro ADME", "conditions": "48 hours after the removal of the extracellular drug", "experimental": "This study measures the time needed for intracellular levels of triphosphates to decline. Studies were conducted in duplicate. Uninfected cells (2 x 10^6 ml) were suspended in the appropriate medium supplemented with serum (10 ml per timepoint) and incubated at 37°C in a 5% CO2 incubator. The radiolabeled FTC concentration was 10 µM. After pulsing the cells with the labeled compound for 24 hours, the cells were thoroughly washed and then replenished with fresh medium without the antiviral drugs (0 hr). At 0, 2, 4, 6, 12, 24, and 48 hours (second incubation time), the cells were removed, and immediately extracted with 60% cold methanol/water. The extract was obtained by centrifugation and removal of the cell pellet. The extracts were lyophilized and then stored at -70°C. Prior to analysis, the material was resuspended in 250 microliters of HPLC buffer and immediately analyzed. Quantitation of intracellular parent drug and metabolic derivatives was conducted by HPLC, using either a Micromeritics or Hewlett-Packard model 1090 PHLC system with an anion exchange Partisel 10 SAX column (Whatman, Inc.), at a flow rate of 1 ml/min, 1 kpsi pressure, with UV detection at 262 nm. The mobile phase consisted of deionized water (A), 2 mM NaH2PO4/16 mM NaOAc (pH = 6.6) (B), 15 mM NaH2PO4/120.2 mM NaOAc (pH = 6.6) (C), and 100 mM NaH2PO4/800 mM NaOAc (pH = 6.6) (D). […]"}, "HIV-RT": {"biological_target": "HIV-RT (Human immunodeficiency virus type 1 group M subtype B, UniProt P04585)", "assay": "DNA chain termination by sequencing analysis", "assay_type": "biochemical", "experimental": "(§2) Toxicity and pharmacokinetic studies confirm the usefulness of FTC as an antiviral agent for pharmaceutical administration. FTC and its enantiomers are nontoxic to peripheral human bone marrow cells at concentrations up to 50 µM and other cell lines at concentrations up to 200 µM. FTC-TP is a major intracellular metabolite in PBMC and HepG2 cells."}, "[10]": {"biological_target": "HIV-1 reverse transcriptase (RT)", "assay": "Competitive inhibition of HIV-1 reverse transcriptase, poly(I)oligo(dC) template-primer", "assay_type": "biochemical", "conditions": "read-out: K1 (affinity), competitive inhibition", "experimental": "as §2"}}, "note": "Like-named read-outs stand apart in the source and are kept apart here.", "data": [{"smiles": "Nc1nc(=O)n([C@@H]2CS[C@H](CO)O2)cc1F", "note": "(racemic) [(±)-FTC, (±)-β-D.L-2-hydroxymethyl-5-(5-fluorocytosin-1-yl)-1,3-oxathiolane]", "values": [{"measurement": "IC50", "setting": "HIV", "result": 520, "unit": "nM"}, {"measurement": "EC50", "setting": "FIV", "result": "≤ 1000", "unit": "nM"}, {"measurement": "EC50", "setting": "SIV", "result": 4.6, "unit": "µM"}, {"measurement": "EC50", "setting": "SIV; C8166", "result": "< 8", "unit": "µM"}, {"measurement": "EC50", "setting": "HIV-1; Human immunodeficiency virus 1, CEM (HTLV1118) NIH", "result": 90, "unit": "nM"}, {"measurement": "EC50", "setting": "HIV-1; Human immunodeficiency virus 1, CEM (LAV-1)", "result": 80, "unit": "nM"}, {"measurement": "EC50", "setting": "HIV-1; Human immunodeficiency virus 1, CEM-TK(-), CEM-TK^(-) (LAV-1)", "result": 26, "unit": "nM"}, {"measurement": "EC50", "setting": "HIV-1; Human immunodeficiency virus 1, MT2 (HTLV1118)", "result": 890, "unit": "nM"}, {"measurement": "EC50", "setting": "HIV-1; Human immunodeficiency virus 1, PBMC, PBMC (LAV-1)", "result": 27, "unit": "nM"}, {"measurement": "EC50", "setting": "HIV-2", "result": 3.8, "unit": "nM"}, {"measurement": "CC50", "setting": "in vitro [1]", "result": "> 100", "unit": "µM"}, {"measurement": "clearance", "setting": "in vivo [2]; 10 mg/kg", "result": 16.5, "unit": "mL/min/kg"}, {"measurement": "half-life", "setting": "in vivo [2]; 10 mg/kg", "result": 45.4, "unit": "min"}, {"measurement": "MRT", "setting": "in vivo [2]; 50 mg/kg", "result": 48, "unit": "min"}, {"measurement": "clearance", "setting": "in vivo [2]; 50 mg/kg", "result": 14.6, "unit": "mL/min/kg"}, {"measurement": "half-life", "setting": "in vivo [2]; 50 mg/kg", "result": 48.9, "unit": "min"}, {"measurement": "clearance", "setting": "in vivo [2]; 100 mg/kg", "result": 13.8, "unit": "mL/min/kg"}, {"measurement": "half-life", "setting": "in vivo [2]; 100 mg/kg", "result": 58.1, "unit": "min"}, {"measurement": "CC50 at 144 h", "setting": "[3]", "result": "> 100", "unit": "µM"}, {"measurement": "EC50", "setting": "HIV-1 (strain LAV); read-out: Antiviral EC50", "result": 10, "unit": "nM"}, {"measurement": "EC50", "setting": "HIV-1 (strain LAV); read-out: activity in PBM cells", "result": "~10", "unit": "nM"}, {"measurement": "CC50", "setting": "in vitro [4]", "result": "> 100", "unit": "µM"}, {"measurement": "Vd", "setting": "in vivo [5]; iv", "result": 2, "unit": "L/kg"}, {"measurement": "clearance", "setting": "in vivo [5]; iv, Mean of three monkeys", "result": 24.8, "unit": "mL/min/kg"}, {"measurement": "clearance", "setting": "in vivo [5]; iv, individual monkeys RUh, RMi, RJd", "result": 29, "unit": "mL/min/kg"}, {"measurement": "bioavailability", "setting": "in vivo [5]; po, F (bioavailability), P.O. 33.3 mg/kg, individual monkeys RUh, RMi, RJd", "result": 80, "unit": "%"}, {"measurement": "toxicity of chronic treatment", "setting": "[6]", "result": "not toxic"}, {"measurement": "toxicity", "setting": "other cell lines", "result": "nontoxic"}, {"measurement": "toxicity", "setting": "[7]", "result": "nontoxic"}, {"measurement": "uptake in human lymphocytes", "setting": "human PBM cells [8]", "result": "readily taken up"}]}, {"smiles": "Nc1nc(=O)n([C@@H]2CS[C@H](COP(=O)(O)OP(=O)(O)OP(=O)(O)O)O2)cc1F", "note": "(racemic) [FTC-TP]", "values": [{"measurement": "intracellular concentration", "setting": "human PBM cells [9]", "result": "1 to 5", "unit": "µM"}, {"measurement": "DNA chain terminator (C-stops)", "setting": "HIV-RT", "result": "potent DNA chain terminator"}, {"measurement": "Ki", "setting": "[10]", "result": 200, "unit": "nM"}]}]}
